Results published in PubChem BioAssay AID1259407 (Chemical Carcinogenesis Research Information System (CCRIS), 2018).
The source made the active and inactive calls. The rule behind the calls is not given here.

Test system: CCRIS mutagenicity, Ames/micronucleus/aberration tests
Experiment: CCRIS mutagenicity studies
Details: Test System: AMES SALMONELLA TYPHIMURIUM

## Nc1ccc2cc3ccccc3cc2c1
Strain/Indicator: NM2000, Metabolic Activation: RAT, LIVER, S-9, AROCLOR 1254, Method: PREINCUBATION
  mutagenic call: active; positive
Strain/Indicator: NM2009, Metabolic Activation: RAT, LIVER, S-9, AROCLOR 1254, Method: PREINCUBATION
  mutagenic call: active; positive
Strain/Indicator: TA97, Metabolic Activation: NONE, Method: STANDARD PLATE
  mutagenic call: inactive; negative
Strain/Indicator: TA97, Metabolic Activation: RAT, LIVER, S-9, AROCLOR 1254, Method: STANDARD PLATE
  mutagenic call: active; positive
Strain/Indicator: TA97A, Metabolic Activation: RAT, LIVER, S-9, AROCLOR 1254, Method: STANDARD PLATE
  mutagenic call: active; positive
Strain/Indicator: TA98 (1,8-DNP6), Metabolic Activation: RAT LIVER, CYTOSOL, AROCLOR 1254, Method: STANDARD PLATE
  mutagenic call: active; positive
Strain/Indicator: TA98 (1,8-DNP6), Metabolic Activation: RAT LIVER, MICROSOMES, AROCLOR 1254, Method: STANDARD PLATE
  mutagenic call: active; positive
Strain/Indicator: TA98, Metabolic Activation: FERRET, LIVER, CYTOSOL, Method: STANDARD PLATE
  mutagenic call: inactive; negative
Strain/Indicator: TA98, Metabolic Activation: FERRET, LIVER, MICROSOMES, Method: STANDARD PLATE
  mutagenic call: active; positive
Strain/Indicator: TA98, Metabolic Activation: HAMSTER, LIVER, CYTOSOL, Method: STANDARD PLATE
  mutagenic call: inactive; negative
Strain/Indicator: TA98, Metabolic Activation: HAMSTER, LIVER, MICROSOMES, Method: STANDARD PLATE
  mutagenic call: active; positive
Strain/Indicator: TA98, Metabolic Activation: HUMAN, LIVER, CYTOSOL, Method: STANDARD PLATE
  mutagenic call: active; positive
Strain/Indicator: TA98, Metabolic Activation: HUMAN, RED BLOOD CELL, CYTOSOL, Method: PREINCUBATION
  mutagenic call: active; positive
Strain/Indicator: TA98, Metabolic Activation: NONE, Method: SPIRAL ASSAY
  mutagenic call: inactive; negative
Strain/Indicator: TA98, Metabolic Activation: PIG, LIVER, CYTOSOL, Method: STANDARD PLATE
  mutagenic call: inactive; negative
Strain/Indicator: TA98, Metabolic Activation: PIG, LIVER, MICROSOMES, Method: STANDARD PLATE
  mutagenic call: active; positive
Strain/Indicator: TA98, Metabolic Activation: RAT LIVER, CYTOSOL, AROCLOR 1254, Method: STANDARD PLATE
  mutagenic call: active; positive
Strain/Indicator: TA98, Metabolic Activation: RAT LIVER, MICROSOMES, AROCLOR 1254, Method: STANDARD PLATE
  mutagenic call: active; positive
Strain/Indicator: TA98, Metabolic Activation: RAT, LIVER, CYTOSOL, Method: STANDARD PLATE
  mutagenic call: inactive; negative
Strain/Indicator: TA98, Metabolic Activation: RAT, LIVER, MICROSOMES, Method: STANDARD PLATE
  mutagenic call: active; positive
Strain/Indicator: TA98, Metabolic Activation: RAT, LIVER, S-9, AROCLOR 1254 (0.5, 1, 2 OR 4%), Method: STANDARD PLATE
  mutagenic call: active; positive
Strain/Indicator: TA98, Metabolic Activation: RAT, LIVER, S-9, AROCLOR 1254, Method: SPIRAL ASSAY
  mutagenic call: active; positive
Strain/Indicator: TA98, Metabolic Activation: RAT, LIVER, S-9, AROCLOR 1254 OR PHENOBARBITOL, Method: STANDARD PLATE
  mutagenic call: active; positive
Strain/Indicator: TA98, Metabolic Activation: RAT, LIVER, S-9, PHENOBARBITAL, Method: STANDARD PLATE
  mutagenic call: active; positive
Strain/Indicator: TA100, Metabolic Activation: MOUSE, LIVER, MICROSOMES, BENZO[E]PYRENE AND TCDD, Method: STANDARD PLATE
  mutagenic call: active; positive
Strain/Indicator: TA100, Metabolic Activation: NONE, Method: SPIRAL ASSAY
  mutagenic call: inactive; negative
Strain/Indicator: TA100, Metabolic Activation: RAT, LIVER, PARENCHYMAL CELLS (FRESHLY ISOLATED OR STORED FOR 1 D OR CRYOPRESERVED), Method: PREINCUBATION
  mutagenic call: active; positive
Strain/Indicator: TA100, Metabolic Activation: RAT, LIVER, S-9, AROCLOR 1254 (2%), Method: STANDARD PLATE
  mutagenic call: active; positive
Strain/Indicator: TA100, Metabolic Activation: RAT, LIVER, S-9, AROCLOR 1254, Method: SPIRAL ASSAY
  mutagenic call: active; positive
Strain/Indicator: TA100, Metabolic Activation: RAT, LIVER, S-9, AROCLOR 1254, Method: STANDARD PLATE
  mutagenic call: active; positive
